Results from patent US9018214B2, “Bicyclic heterocycle compounds and their uses in therapy” (Astex Therapeutics Limited, priority 2011, dated 2015).
Structures can show the parent of a compound that is named as a salt. Where two headings read alike, the source gives them in different places.

Assays:
[1] = biological target: BIR3 domain of human XIAP (residues 252-350) (Homo sapiens (Human), UniProt P98170); experiment: XIAP in vitro competitive displacement binding assay (fluorescence polarization); details: for IC50: read-out: IC50 or PI Xiap: IC50; for inhibition at 0.04 µM: 1 h, read-out: IC50 or PI Xiap: PI
[2] = biological target: BIR3 domain of human cIAP-1 (residues 267-363) (Homo sapiens (Human), UniProt Q13490); experiment: cIAP-1 in vitro competitive displacement binding assay (fluorescence polarization; Probe A AVPIK(5&6FAM)-amide or Probe B AbuRPFK(5&6FAM)-amide); details: for inhibition at 0.01 µM / inhibition at […]: 3 h, read-out: IC50 or PI cIAP1: PI
[3] = test system: EVSA-T (human breast carcinoma); experiment: Anti-proliferative activity, Alamar Blue assay, EVSA-T; assay type: cell-based; details: Homo sapiens, EVSA-T
[4] = read-out: IC50 or PI cIAP1: IC50
[5] = 72 h, read-out: EVSA-T prolif (EC50)
[6] = Probe B AbuRPFK(5&6FAM)-amide, read-out: IC50 or PI cIAP1: IC50
[7] = 72 hours, Alamar Blue, read-out: EVSA-T prolif (EC50)

COC[C@H]1CN[C@H](C)CN1CC(=O)N1CC(C)(C)c2cnc(-c3ccsc3)cc21 [Example 126, 1-[3,3-Dimethyl-6-(thiophen-3-yl)-1H,2H,3H-pyrrolo[3,2-c]pyridin-1-yl]-2-[(2R,5R)-2-(methoxymethyl)-5-methylpiperazin-1-yl]ethan-1-one dihydrochloride]
IC50 [1]: 380 nM | IC50 [2, 4]: 86 nM | EC50 ([3]; 72 h, read-out: EC50, inhibition of cell growth): < 10000 nM | EC50 [3, 5]: 1800 nM

C[C@@H]1CN(CC(=O)N2CC(C)(C)c3cnc(Cc4ccccc4)cc32)[C@@H](C(=O)N2CCCC2)CN1 [Example 131, 1-{6-Benzyl-3,3-dimethyl-1H,2H,3H-pyrrolo[3,2-c]pyridin-1-yl}-2-[(2R,5R)-5-methyl-2-[(pyrrolidin-1-yl)carbonyl]piperazin-1-yl]ethan-1-one dihydrochloride]
IC50 [1]: 130 nM | inhibition at 0.01 µM [2]: 63% | EC50 [3, 5]: 88 nM

C[C@@H]1CN(CC(=O)N2CC(C)(C)c3cnc(Cc4ccccc4)cc32)[C@@H](C(=O)N2CCCCC2)CN1 [Example 133, 1-{6-Benzyl-3,3-dimethyl-1H,2H,3H-pyrrolo[3,2-c]pyridin-1-yl}-2-[(2R,5R)-5-methyl-2-[(piperidin-1-yl)carbonyl]piperazin-1-yl]ethan-1-one dihydrochloride]
IC50 [1]: 91 nM | inhibition at 0.01 µM [2]: 71% | EC50 [3, 5]: 110 nM

CCC1(CC)CN(C(=O)CN2C[C@@H](C)NC[C@@H]2C(=O)N2CCOCC2)c2cc(Cl)ccc21 [Example 135, 1-(6-Chloro-3,3-diethyl-2,3-dihydro-1H-indol-1-yl)-2-[(2R,5R)-5-methyl-2-[(morpholin-4-yl)carbonyl]piperazin-1-yl]ethan-1-one hydrochloride]
IC50 [1]: 400 nM | IC50 [2, 6]: 79 nM | EC50 [3, 7]: 1600 nM

C[C@@H]1CN(CC(=O)N2CC3(Cc4ccccc4C3)c3ccc(Cl)cc32)[C@@H](Cn2cccn2)CN1 [Example 142, 1-{6′-Chloro-1,1′,2′,3-tetrahydrospiro[indene-2,3′-indole]-1′-yl}-2-[(2R,5R)-5-methyl-2-(1H-pyrazol-1-ylmethyl)piperazin-1-yl]ethan-1-one hydrochloride]
IC50 [1]: 220 nM | IC50 [2, 6]: 150 nM | inhibition at 1 µM ([3]; at 1 μM, read-out: EVSA-T prolif: % inhibition): 20%

C[C@@H]1CN(CC(=O)N2CC(C)(c3ccccc3)c3ccc(C#N)cc32)[C@@H](Cn2cccn2)CN1 (stereo partly drawn) [Example 143, 3-Methyl-1-{2-[(2R,5R)-5-methyl-2-(1H-pyrazol-1-ylmethyl)piperazin-1-yl]acetyl}-3-phenyl-2,3-dihydro-1H-indole-6-carbonitrile hydrochloride]
IC50 [1]: 100 nM | IC50 [2, 6]: 200 nM | EC50 [3, 7]: 8800 nM

COC[C@H]1CN[C@H](C)CN1CC(=O)N1CC(C)(C)c2cnc(-c3ccoc3)cc21 [Example 145, 1-[6-(Furan-3-yl)-3,3-dimethyl-1H,2H,3H-pyrrolo[3,2-c]pyridin-1-yl]-2-[(2R,5R)-2-(methoxymethyl)-5-methylpiperazin-1-yl]ethan-1-one dihydrochloride]
IC50 [1]: 1000 nM | IC50 [2, 4]: 180 nM | EC50 [3, 5]: 9800 nM

COC[C@H]1CN[C@H](C)CN1CC(=O)N1CC(C)(C)c2cnc(C(F)(F)c3ccccc3)cc21 [Example 146, 1-{6-[Difluoro(phenyl)methyl]-3,3-dimethyl-1H,2H,3H-pyrrolo[3,2-c]pyridin-1-yl}-2-[(2R,5R)-2-(methoxymethyl)-5-methylpiperazin-1-yl]ethan-1-one hydrochloride]
IC50 [1]: 75 nM | IC50 [2, 6]: 17 nM | EC50 [3, 7]: 640 nM

COC[C@H]1CN[C@H](C)CN1CC(=O)N1CC(C)(C)c2cnc(-c3ccc(C)s3)cc21 [Example 148, 1-[3,3-Dimethyl-6-(5-methylthiophen-2-yl)-1H,2H,3H-pyrrolo[3,2-c]pyridin-1-yl]-2-[(2R,5R)-2-(methoxymethyl)-5-methylpiperazin-1-yl]ethan-1-one dihydrochloride]
IC50 [1]: 360 nM | IC50 [2, 4]: 45 nM | EC50 [3, 5]: 2000 nM

C[C@@H]1CN(CC(=O)N2CC(C)(c3ccccc3)c3ccc(C#N)cc32)[C@@H](C(=O)N2CCOCC2)CN1 (stereo partly drawn) [Example 149, 3-Methyl-1-{2-[(2R,5R)-5-methyl-2-[(morpholin-4-yl)carbonyl]piperazin-1-yl]acetyl}-3-phenyl-2,3-dihydro-1H-indole-6-carbonitrile hydrochloride]
IC50 [1]: 55 nM | IC50 [2, 6]: 130 nM | EC50 [3, 7]: 9200 nM

C[C@@H]1CN(CC(=O)N2C[C@@](C)(c3ccccc3)c3ccc(C#N)cc32)[C@@H](C(=O)N2CCOCC2)CN1 [Example 152, (3S)-3-Methyl-1-{2-[(2R,5R)-5-methyl-2-[(morpholin-4-yl)carbonyl]piperazin-1-yl]acetyl}-3-phenyl-2,3-dihydro-1H-indole-6-carbonitrile]
IC50 [1]: 65 nM | IC50 [2, 6]: 110 nM | EC50 [3, 7]: 3700 nM

C[C@@H]1CN(CC(=O)N2C[C@](C)(c3ccccc3)c3ccc(C#N)cc32)[C@@H](C(=O)N2CCOCC2)CN1 [Example 153, (3R)-3-Methyl-1-{2-[(2R,5R)-5-methyl-2-[(morpholin-4-yl)carbonyl]piperazin-1-yl]acetyl}-3-phenyl-2,3-dihydro-1H-indole-6-carbonitrile]
inhibition at 0.04 µM ([1]; @ 0.04 μM): 54% | IC50 [2, 6]: 160 nM | EC50 [3, 7]: 4000 nM

C[C@@H]1CN(CC(=O)N2CC(C)(C)c3cnc(Cc4ccccc4)cc32)[C@@H](Cn2cc(F)cn2)CN1 [Example 157, 1-{6-Benzyl-3,3-dimethyl-1H,2H,3H-pyrrolo[3,2-c]pyridin-1-yl}-2-[(2R,5R)-2-[(4-fluoro-1H-pyrazol-1-yl)methyl]-5-methylpiperazin-1-yl]ethan-1-one hydrochloride]
IC50 [1]: 65 nM | inhibition at […] ([2]; Probe B, @ 0.012 μM): 78% | EC50 [3, 7]: 95 nM

C[C@@H]1CN(CC(=O)N2CC(C)(C)c3cnc(C(F)(F)c4ccccc4)cc32)[C@@H](C(=O)N(C)C)CN1 [Example 158, (2R,5R)-1-(2-{6-[Difluoro(phenyl)methyl]-3,3-dimethyl-1H,2H,3H-pyrrolo[3,2-c]pyridin-1-yl}-2-oxoethyl)-N,N,5-trimethylpiperazine-2-carboxamide dihydrochloride]
IC50 [1]: 49 nM | inhibition at 0.01 µM [2]: 51% | EC50 [3, 5]: 300 nM

Cc1cnn(C[C@H]2CN[C@H](C)CN2CC(=O)N2CC(C)(C)c3cnc(C(F)(F)c4ccccc4)cc32)c1 [Example 159, 1-{6-[Difluoro(phenyl)methyl]-3,3-dimethyl-1H,2H,3H-pyrrolo[3,2-c]pyridin-1-yl}-2-[(2R,5R)-5-methyl-2-[(4-methyl-1H-pyrazol-1-yl)methyl]piperazin-1-yl]ethan-1-one dihydrochloride]
inhibition at 0.04 µM [1]: 56% | inhibition at […] [2]: 72% | EC50 [3, 7]: 120 nM

Cc1cnn(C[C@H]2CN[C@H](C)CN2CC(=O)N2CC3(Cc4ccccc4C3)c3ccc(C#N)cc32)c1 [Example 161, 1′-{2-[(2R,5R)-5-Methyl-2-[(4-methyl-1H-pyrazol-1-yl)methyl]piperazin-1-yl]acetyl}-1,1′,2′,3-tetrahydrospiro[indene-2,3′-indole]-6′-carbonitrile]
IC50 [1]: 60 nM | IC50 [2]: < 1000 nM | IC50 [2, 6]: 110 nM | EC50 [3, 7]: 1700 nM

COC[C@H]1CN[C@H](C)CN1CC(=O)N1CC(C)(c2cccnc2)c2ccc(Cc3ccccc3)cc21 (stereo partly drawn) [Example 163, 1-[6-Benzyl-3-methyl-3-(pyridin-3-yl)-2,3-dihydro-1H-indol-1-yl]-2-[(2R,5R)-2-(methoxymethyl)-5-methylpiperazin-1-yl]ethan-1-one hydrochloride]
IC50 [1]: 160 nM | IC50 [2]: < 1000 nM | IC50 [2, 6]: 13 nM | EC50 [3, 7]: 450 nM

C[C@@H]1CN(CC(=O)N2CC(C)(C)c3cnc(Cc4ccc(F)cc4F)cc32)[C@@H](C(=O)N(C)C)CN1 [Example 164, (2R,5R)-1-(2-{6-[(2,4-Difluorophenyl)methyl]-3,3-dimethyl-1H,2H,3H-pyrrolo[3,2-c]pyridin-1-yl}-2-oxoethyl)-N,N,5-trimethylpiperazine-2-carboxamide dihydrochloride]
IC50 [1]: 120 nM | inhibition at […] [2]: 86% | EC50 [3, 5]: 45 nM

C[C@@H]1CN(CC(=O)N2CC(C)(C)c3cnc(Oc4ccccc4Cl)cc32)[C@@H](C(=O)N2CCOCC2)CN1 [Example 165, 1-[6-(2-Chlorophenoxy)-3,3-dimethyl-1H,2H,3H-pyrrolo[3,2-c]pyridin-1-yl]-2-[(2R,5R)-5-methyl-2-[(morpholin-4-yl)carbonyl]piperazin-1-yl]ethan-1-one dihydrochloride]
inhibition at 0.04 µM [1]: 65% | IC50 [2]: < 1000 nM | IC50 [2, 4]: 14 nM | EC50 [3, 5]: 650 nM

COC[C@H]1CN[C@H](C)CN1CC(=O)N1CC(C)(C)c2c[n+]([O-])c(Cc3ccc(F)cc3F)cc21 [Example 166, 6-[(2,4-Difluorophenyl)methyl]-1-{2-[(2R,5R)-2-(methoxymethyl)-5-methylpiperazin-1-yl]acetyl}-3,3-dimethyl-1H,2H,3H-1,5λ^5-pyrrolo[3,2-c][1λ^5]pyridin-5-one hydrochloride]
IC50 [1]: 150 nM | inhibition at […] ([2]; Probe B, @ 0.012 μM): 76% | EC50 [3, 7]: 130 nM

C[C@@H]1CN(CC(=O)N2CC(C)(C)c3c[n+]([O-])c(Cc4ccc(F)cc4F)cc32)[C@@H](C(=O)N(C)C)CN1 [Example 167, (2R,5R)-1-(2-{6-[(2,4-Difluorophenyl)methyl]-3,3-dimethyl-5-oxo-1H,2H,3H-1,5λ^5-pyrrolo[3,2-c][1λ^5]pyridin-1-yl}-2-oxoethyl)-N,N,5-trimethylpiperazine-2-carboxamide hydrochloride]
IC50 [1]: 100 nM | inhibition at […] ([2]; Probe B, @ 0.012 μM): 84% | EC50 [3, 7]: 260 nM
